Patent US11427567B2, “Imidazolyl pyrimidinylamine compounds as CDK2 inhibitors” (Incyte Corporation, priority 2019, dated 2022)

Molecular target: CDK2/Cyclin E1 (Homo sapiens (Human), UniProt P24941)
Assay: CDK2/Cyclin E1 HTRF enzyme activity assay (Example A)
Type: biochemical
Details: 1 mM ATP
Procedure: Assays were conducted in white 384-well polystyrene plates in a final reaction volume of 8 μL. […] HTRF signals were read after 1 hour at room temperature on a PHERAstar FS plate reader (BMG Labtech). Data was analyzed with IDBS XLFit and GraphPad Prism 5.0 software using a three or four parameter dose response curve to determine IC50 for each compound.

Structure (SMILES)	IC50
Cc1nn(C)cc1-c1ccc(-n2cc(-c3nc(NC4CCN(S(C)(=O)=O)CC4)ncc3C(F)(F)F)nc2C)c(F)c1 [Example 127, 4-(1-(4-(1,3-Dimethyl-1H-pyrazol-4-yl)-2-fluorophenyl)-2-methyl-1H-imidazol-4-yl)-N-(1-(methylsulfonyl)piperidin-4-yl)-5-(trifluoromethyl)pyrimidin-2-amine]	≤ 50 nM
CS(=O)(=O)N1CC[C@H](Nc2ncc(C(F)(F)F)c(-c3cn(-c4ccc(CN5CCC5)cc4Cl)cn3)n2)[C@H](F)C1 [Example 184, 4-(1-(4-(Azetidin-1-ylmethyl)-2-chlorophenyl)-1H-imidazol-4-yl)-N-((3R,4S)-3-fluoro-1-(methylsulfonyl)piperidin-4-yl)-5-(trifluoromethyl)pyrimidin-2-amine]	≤ 50 nM
CN(C)C1CCN(c2ccc(-n3cnc(-c4nc(NC5CCN(S(C)(=O)=O)CC5)ncc4C(F)(F)F)c3)c(Cl)c2)C1 (centres unmarked) [Example 143, 4-(1-(2-Chloro-4-(3-(dimethylamino)-pyrrolidin-1-yl)-phenyl)-1H-imidazol-4-yl)-N-(1-(methylsulfonyl)-piperidin-4-yl)-5-(trifluoromethyl)-pyrimidin-2-amine]	≤ 50 nM
Cc1c(C#N)cccc1-n1cnc(-c2nc(N[C@H]3CCN(S(C)(=O)=O)C[C@H]3F)ncc2C(F)(F)F)c1 [Example 42, 3-(4-(2-(((3R,4S)-3-Fluoro-1-(methylsulfonyl)piperidin-4-yl)amino)-5-(trifluoromethyl)pyrimidin-4-yl)-1H-imidazol-1-yl)-2-methylbenzonitrile]	≤ 50 nM
CS(=O)(=O)N1CCC(Nc2ncc(C(F)(F)F)c(-c3cn(-c4ccc(CN5CC6CCC5C6)cc4Cl)cn3)n2)CC1 (centres unmarked) [Example 180, 4-(1-(4-((2-Azabicyclo[2.2.1]heptan-2-yl)methyl)-2-chlorophenyl)-1H-imidazol-4-yl)-N-(1-(methylsulfonyl)piperidin-4-yl)-5-(trifluoromethyl)pyrimidin-2-amine]	≤ 50 nM
Cc1cccc(-n2cnc(-c3nc(NC4CCN(S(C)(=O)=O)CC4)ncc3C(F)(F)F)c2)c1C#N [Example 61, 2-Methyl-6-(4-(2-((1-(methylsulfonyl)piperidin-4-yl)amino)-5-(trifluoromethyl)pyrimidin-4-yl)-1H-imidazol-1-yl)benzonitrile]	≤ 50 nM
CCCc1ccc(-n2cnc(-c3nc(NC4CCN(S(C)(=O)=O)CC4)ncc3C(F)(F)F)c2)c(C#N)n1 [Example 94, 3-(4-(2-((1-(Methylsulfonyl)piperidin-4-yl)amino)-5-(trifluoromethyl)pyrimidin-4-yl)-1H-imidazol-1-yl)-6-propylpicolinonitrile]	≤ 50 nM
CN(C)CCN(C)c1ccc(-n2cnc(-c3nc(NC4CCN(S(C)(=O)=O)CC4)ncc3C(F)(F)F)c2)c(Cl)c1 [Example 149, N^1-(3-Chloro-4-(4-(2-((1-(methyl-sulfonyl)piperidin-4-yl)amino)-5-(trifluoromethyl)-pyrimidin-4-yl)-1H-imidazol-1-yl)-phenyl)-N1,N2,N2-trimethylethane-1,2-diamine]	≤ 50 nM
Cc1nc(C(=O)NC(C)C)ccc1-n1cnc(-c2nc(NC3CCN(S(C)(=O)=O)CC3)ncc2C(F)(F)F)c1 [Example 133, N-Isopropyl-6-methyl-5-(4-(2-((1-(methyl-sulfonyl)piperidin-4-yl)amino)-5-(trifluoromethyl)-pyrimidin-4-yl)-1H-imidazol-1-yl)picolinamide]	≤ 50 nM
CS(=O)(=O)N1CCC(Nc2ncc(C(F)(F)F)c(-c3cn(-c4ccc(Cn5nccn5)cc4Cl)cn3)n2)CC1 [Example 241, 4-(1-(4-((2H-1,2,3-Triazol-2-yl)methyl)-2-chlorophenyl)-1H-imidazol-4-yl)-N-(1-(methylsulfonyl)piperidin-4-yl)-5-(trifluoromethyl)pyrimidin-2-amine]	≤ 50 nM
CS(=O)(=O)N1CCC(Nc2ncc(C(F)(F)F)c(-c3cn(-c4ccc(CN5CC(F)(F)C5)cc4Cl)cn3)n2)CC1 [Example 193, 4-(1-(2-Chloro-4-((3,3-difluoroazetidin-1-yl)methyl)phenyl)-1H-imidazol-4-yl)-N-(1-(methylsulfonyl)-piperidin-4-yl)-5-(trifluoromethyl)-pyrimidin-2-amine]	≤ 50 nM
Cc1nnn(C)c1-c1ccc(-n2cnc(-c3nc(NC4CCN(S(C)(=O)=O)CC4)ncc3C(F)(F)F)c2)c(Cl)c1 [Example 120, 4-(1-(2-Chloro-4-(1,4-dimethyl-1H-1,2,3-triazol-5-yl)phenyl)-1H-imidazol-4-yl)-N-(1-(methylsulfonyl)-piperidin-4-yl)-5-(trifluoromethyl)-pyrimidin-2-amine]	≤ 50 nM
Cc1nc(C#N)ccc1-n1cnc(-c2nc(NC3CCN(S(C)(=O)=O)CC3)ncc2C(F)(F)F)c1 [Example 33, 6-Methyl-5-(4-(2-((1-(methylsulfonyl)piperidin-4-yl)amino)-5-(trifluoromethyl)pyrimidin-4-yl)-1H-imidazol-1-yl)picolinonitrile]	≤ 50 nM
Cn1ncnc1-c1ccc(-n2cnc(-c3nc(NC4CCN(S(C)(=O)=O)CC4)ncc3C(F)(F)F)c2)c(C#N)c1 [Example 125, 5-(1-Methyl-1H-1,2,4-triazol-5-yl)-2-(4-(2-((1-(methylsulfonyl)piperidin-4-yl)amino)-5-(trifluoromethyl)pyrimidin-4-yl)-1H-imidazol-1-yl)benzonitrile]	≤ 50 nM
C[C@@H]1CN(S(C)(=O)=O)CC[C@@H]1Nc1ncc(C(F)(F)F)c(-c2cn(-c3ccc(CN(C)C)cc3Cl)cn2)n1 [Example 220, 4-(1-(2-Chloro-4-((dimethylamino)-methyl)phenyl)-1H-imidazol-4-yl)-N-((3R,4S)-3-methyl-1-(methylsulfonyl)-piperidin-4-yl)-5-(trifluoromethyl)-pyrimidin-2-amine]	≤ 50 nM

Further lines, results first:

IC50	Structure (SMILES)
≤ 50 nM	CNCc1ccc(-n2cnc(-c3nc(NC4CCN(S(C)(=O)=O)CC4)ncc3C(F)(F)F)c2)c(C#N)c1 [Example 249, 5-((Methylamino)methyl)-2-(4-(2-((1-(methylsulfonyl)piperidin-4-yl)amino)-5-(trifluoromethyl)pyrimidin-4-yl)-1H-imidazol-1-yl)benzonitrile]
≤ 50 nM	CN1CCN(c2nccc(-n3cnc(-c4nc(NC5CCN(S(C)(=O)=O)CC5)ncc4C(F)(F)F)c3)c2Cl)CC1 [Example 319, 4-(1-(3-Chloro-2-(4-methylpiperazin-1-yl)pyridin-4-yl)-1H-imidazol-4-yl)-N-(1-(methylsulfonyl)piperidin-4-yl)-5-(trifluoromethyl)pyrimidin-2-amine]
≤ 50 nM	CS(=O)(=O)N1CCC(Nc2ncc(C(F)(F)F)c(-c3cn(-c4ccc(CN5CCC5)nc4C(F)(F)F)cn3)n2)CC1 [Example 247, 4-(1-(6-(Azetidin-1-ylmethyl)-2-(trifluoromethyl)pyridin-3-yl)-1H-imidazol-4-yl)-N-(1-(methylsulfonyl)piperidin-4-yl)-5-(trifluoromethyl)pyrimidin-2-amine]
≤ 50 nM	CS(=O)(=O)N1CCC(Nc2ncc(C(F)(F)F)c(-c3cn(-c4ccc(CN5CCCC5=O)cc4Cl)cn3)n2)CC1 [Example 454, 1-(3-Chloro-4-(4-(2-((1-(methylsulfonyl)piperidin-4-yl)amino)-5-(trifluoromethyl)pyrimidin-4-yl)-1H-imidazol-1-yl)benzyl)pyrrolidin-2-one]
≤ 50 nM	CC(C)(O)Cn1cnc(-c2nc(N[C@H]3CCN(S(C)(=O)=O)C[C@H]3F)ncc2C(F)(F)F)c1 [Example 325, 1-(4-(2-(((3R,4S)-3-Fluoro-1-(methylsulfonyl)piperidin-4-yl)amino)-5-(trifluoromethyl)pyrimidin-4-yl)-1H-imidazol-1-yl)-2-methylpropan-2-ol]
≤ 50 nM	CS(=O)(=O)N1CCC(Nc2ncc(C(F)(F)F)c(-c3cn(-c4cccc(CN5CC[C@H](C#N)C5)c4C(F)(F)F)cn3)n2)CC1 [Example 471, (S)-1-(3-(4-(2-((1-(Methylsulfonyl)piperidin-4-yl)amino)-5-(trifluoromethyl)pyrimidin-4-yl)-1H-imidazol-1-yl)-2-(trifluoromethyl)benzyl)pyrrolidine-3-carbonitrile]
≤ 50 nM	O=S(=O)(C1CC1)N1CC[C@H](Nc2ncc(C(F)(F)F)c(-c3cn(CC(F)F)cn3)n2)[C@H](F)C1 [Example 329, N-((3R,4S)-1-(Cyclopropylsulfonyl)-3-fluoropiperidin-4-yl)-4-(1-(2,2-difluoroethyl)-1H-imidazol-4-yl)-5-(trifluoromethyl)pyrimidin-2-amine]
≤ 50 nM	CC(C)NCc1cc(F)c(-n2cnc(-c3nc(NC4CCN(S(C)(=O)=O)CC4)ncc3C(F)(F)F)c2)c(Cl)c1 [Example 394, 4-(1-(2-Chloro-6-fluoro-4-((isopropylamino)methyl)phenyl)-1H-imidazol-4-yl)-N-(1-(methylsulfonyl)piperidin-4-yl)-5-(trifluoromethyl)pyrimidin-2-amine]
≤ 50 nM	Cc1nc(-c2nc(NC3CCN(S(C)(=O)=O)CC3)ncc2C(F)(F)F)cn1-c1ccc(OCCN(C)C)cc1F [Example 423, 4-(1-(4-(2-(Dimethylamino)ethoxy)-2-fluorophenyl)-2-methyl-1H-imidazol-4-yl)-N-(1-(methylsulfonyl)piperidin-4-yl)-5-(trifluoromethyl)pyrimidin-2-amine]
≤ 50 nM	CC(C)NCc1cccc(-n2cnc(-c3nc(NC4CCN(S(C)(=O)=O)CC4)ncc3C(F)(F)F)c2)c1Cl [Example 360, 4-(1-(2-Chloro-3-((isopropylamino)meth-yl)phenyl)-1H-imidazol-4-yl)-N-(1-(methylsulfonyl)piperidin-4-yl)-5-(trifluoromethyl)pyrimi-din-2-amine]
≤ 50 nM	CN1CCN(c2ccc(-n3cnc(-c4nc(NC5CCN(S(C)(=O)=O)CC5)ncc4C(F)(F)F)c3)c(C#N)c2)CC1 [Example 430, 5-(4-Methylpiperazin-1-yl)-2-(4-(2-((1-(methylsulfonyl)piperidin-4-yl)amino)-5-(trifluoromethyl)pyrimidin-4-yl)-1H-imidazol-1-yl)benzonitrile]
